{"source": "patent US20200347043A1", "about": "“MODULATORS OF THE INTEGRATED STRESS PATHWAY” (Calico Life Sciences LLC, priority 2019, published 2020)", "note": "pEC50: −log10 of the molar value.", "data": [{"test_system": "HEK293T cells carrying the ATF4 luciferase reporter", "assay": "ATF4-Luc assay (in vitro model of VWMD)", "assay_type": "cell-based, human", "conditions": "Homo sapiens, HEK-293T, 1 μg/mL tunicamycin, 7 hours, One Glo luminescence", "method_in_brief": "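Stable HEK293T line expressing firefly luciferase behind the human ATF4 5′-UTR, treated with 1 μg/mL tunicamycin plus compound for 7 hours. Luminescence read with One Glo; EC50 determined.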", "values": [{"smiles": "O=C(NC12CC(c3ncc(-c4ccc(Cl)cc4)o3)(C1)C2)[C@@H]1C[C@@H](O)c2cc(Cl)ccc2O1", "note": "[Compound 255, (2S,4R)-6-chloro-N-{3-[5-(4-chlorophenyl)-1,3-oxazol-2-yl]bicyclo[1.1.1]pentan-1-yl}-4-hydroxy-3,4-dihydro-2H-1-benzopyran-2-carboxamide]", "pEC50": "7.30 to 8.00"}, {"smiles": "O=C(NC12CC(c3cc(-c4ccc(Cl)cc4)on3)(C1)C2)[C@H]1C[C@@H](O)c2cc(Cl)ccc2O1", "note": "[Compound 256, (2R,4R)-6-chloro-N-{3-[5-(4-chlorophenyl)-1,2-oxazol-3-yl]bicyclo[1.1.1]pentan-1-yl}-4-hydroxy-3,4-dihydro-2H-1-benzopyran-2-carboxamide]", "pEC50": "> 8.00"}, {"smiles": "O=C(NC12CC(c3cc(-c4ccc(Cl)cc4)on3)(C1)C2)[C@@H]1C[C@@H](O)c2cc(Cl)ccc2O1", "note": "[Compound 257, (2S,4R)-6-chloro-N-{3-[5-(4-chlorophenyl)-1,2-oxazol-3-yl]bicyclo[1.1.1]pentan-1-yl}-4-hydroxy-3,4-dihydro-2H-1-benzopyran-2-carboxamide]", "pEC50": "6.60 to 7.30"}, {"smiles": "O=C(NC12CC(c3cc(-c4ccc(Cl)c(F)c4)on3)(C1)C2)[C@H]1C[C@@H](O)c2cc(Cl)ccc2O1", "note": "[Compound 258, (2R,4R)-6-chloro-N-{3-[5-(4-chloro-3-fluorophenyl)-1,2-oxazol-3-yl]bicyclo[1.1.1]pentan-1-yl}-4-hydroxy-3,4-dihydro-2H-1-benzopyran-2-carboxamide]", "pEC50": "> 8.00"}, {"smiles": "O=C(NC12CC(c3cc(-c4ccc(Cl)c(F)c4)on3)(C1)C2)[C@@H]1C[C@@H](O)c2cc(Cl)ccc2O1", "note": "[Compound 259, (2S,4R)-6-chloro-N-{3-[5-(4-chloro-3-fluorophenyl)-1,2-oxazol-3-yl]bicyclo[11.11]pentan-1-yl}-4-hydroxy-3,4-dihydro-2H-1-benzopyran-2-carboxamide]", "pEC50": "7.30 to 8.00"}, {"smiles": "O=C(NC12CC(c3cc(-c4ccc(C(F)(F)F)nc4)on3)(C1)C2)[C@H]1C[C@@H](O)c2cc(Cl)ccc2O1", "note": "[Compound 260, (2R,4R)-6-chloro-4-hydroxy-N-(3-{5-[6-(trifluoromethyl)pyridin-3-yl]-1,2-oxazol-3-yl}bicyclo[1.1.1]pentan-1-yl)-3,4-dihydro-2H-1-benzopyran-2-carboxamide]", "pEC50": "7.30 to 8.00"}, {"smiles": "O=C(NC12CC(c3cc(-c4ccc(C(F)(F)F)nc4)on3)(C1)C2)[C@@H]1C[C@@H](O)c2cc(Cl)ccc2O1", "note": "[Compound 261, (2S,4R)-6-chloro-4-hydroxy-N-(3-{5-[6-(trifluoromethyl)pyridin-3-yl]-1,2-oxazol-3-yl}bicyclo[1.1.1]pentan-1-yl)-3,4-dihydro-2H-1-benzopyran-2-carboxamide]", "pEC50": "6.60 to 7.30"}, {"smiles": "O=C(NC12CC(c3cnn(-c4ccc(C(F)(F)F)nc4)c3)(C1)C2)[C@H]1C[C@@H](O)c2cc(Cl)ccc2O1", "note": "[Compound 262, (2R,4R)-6-chloro-4-hydroxy-N-(3-{1-[6-(trifluoromethyl)pyridin-3-yl]-1H-pyrazol-4-yl}bicyclo[1.1.1]pentan-1-yl)-3,4-dihydro-2H-1-benzopyran-2-carboxamide]", "pEC50": "> 8.00"}, {"smiles": "O=C(NC12CC(c3cnn(-c4ccc(C(F)(F)F)nc4)c3)(C1)C2)[C@@H]1C[C@@H](O)c2cc(Cl)ccc2O1", "note": "[Compound 263, (2S,4R)-6-chloro-4-hydroxy-N-(3-{1-[6-(trifluoromethyl)pyridin-3-yl]-1H-pyrazol-4-yl}bicyclo[1.1.1]pentan-1-yl)-3,4-dihydro-2H-1-benzopyran-2-carboxamide]", "pEC50": "7.30 to 8.00"}, {"smiles": "O=C(NC12CC(c3cnn(-c4ccc(Cl)cc4)c3)(C1)C2)[C@H]1C[C@@H](O)c2cc(Cl)ccc2O1", "note": "[Compound 264, (2R,4R)-6-chloro-N-{3-[1-(4-chlorophenyl)-1H-pyrazol-4-yl]bicyclo[1.1.1]pentan-1-yl}-4-hydroxy-3,4-dihydro-2H-1-benzopyran-2-carboxamide]", "pEC50": "> 8.00"}]}]}
